Test: Organoleptic test of the compounds of formula (I) against sucrose
Design: key to sweetness compared to sucrose: 3: sweeter than the control solution; 2: sweetness comparable with the control solution; 1: less sweet than the control solution but still sweet
Conditions: panel of 3-4 panelists; for sweetness compared to sucrose: test compound dissolved in water (Evian) at 400 ppm, control sucrose 20 g/l; for Comment (taste impression): test compound dissolved in water at 400 ppm
Protocol: The isolated pure compounds were dissolved in non-carbonated mineral water (“Evian”) in a concentration of 0.4 mg/ml (400 ppm). The sweet taste of each sample was compared by a panel of 3-4 panelists with a solution of sucrose in a concentration of 20 g/l.

CC(C)(/C=C/C[C@@](C)(O[C@@H]1O[C@H](CO)[C@@H](O)[C@H](O)[C@H]1O)[C@H]1CC[C@]2(C)[C@@H]1[C@H](O)C[C@@H]1[C@@]3(C)C[C@@H](O)[C@H](O[C@@H]4O[C@H](CO)[C@@H](O)[C@H](O)[C@H]4O[C@@H]4O[C@H](CO)[C@@H](O)[C@H](O)[C@H]4O)C(C)(C)[C@@H]3CC[C@]12C)OO (stereo in doubt) [Compound E]
sweetness compared to sucrose: 3

CC(C)=CCC[C@](C)(O[C@@H]1O[C@H](CO[C@@H]2OC[C@@H](O)[C@H](O)[C@H]2O)[C@@H](O)[C@H](O)[C@H]1O)[C@H]1CC[C@]2(C)[C@@H]1[C@H](O)CC1[C@@]3(C)C[C@@H](O)[C@H](O[C@@H]4O[C@H](CO)[C@@H](O)[C@H](O)[C@H]4O[C@@H]4O[C@H](CO)[C@@H](O)[C@H](O)[C@H]4O)C(C)(C)C3CC[C@]12C (stereo partly drawn) [Compound A]
sweetness compared to sucrose: 2 | Comment (taste impression): Slightly hot

CC(C)=CCC[C@](C)(O[C@@H]1O[C@H](CO)[C@@H](O)[C@H](O)[C@H]1O)[C@H]1CC[C@]2(C)[C@@H]1[C@H](O)CC1[C@@]3(C)C[C@@H](O)[C@H](O[C@@H]4O[C@H](CO)[C@@H](O)[C@H](O)[C@H]4O[C@@H]4O[C@H](CO)[C@@H](O)[C@H](O)[C@H]4O)C(C)(C)C3CC[C@]12C (stereo partly drawn) [Compound B]
sweetness compared to sucrose: 3 | Comment (taste impression): Slightly bitter

C=C(C)C(CC[C@](C)(O[C@@H]1O[C@H](CO[C@@H]2OC[C@@H](O)[C@H](O)[C@H]2O)[C@@H](O)[C@H](O)[C@H]1O)[C@H]1CC[C@]2(C)[C@@H]1[C@H](O)CC1[C@@]3(C)C[C@@H](O)[C@H](O[C@@H]4O[C@H](CO)[C@@H](O)[C@H](O)[C@H]4O[C@@H]4O[C@H](CO)[C@@H](O)[C@H](O)[C@H]4O)C(C)(C)C3CC[C@]12C)OO (stereo partly drawn) [Compound C]
sweetness compared to sucrose: 2

CC(C)(O)/C=C/C[C@](C)(O[C@@H]1O[C@H](CO)[C@@H](O)[C@H](O)[C@H]1O)[C@H]1CC[C@]2(C)C1[C@H](O)CC1[C@@]3(C)C[C@@H](O)[C@H](O[C@@H]4O[C@H](CO)[C@@H](O)[C@H](O)[C@H]4O[C@@H]4O[C@H](CO)[C@@H](O)[C@H](O)[C@H]4O)C(C)(C)C3CC[C@]12C (stereo partly drawn) [Compound D]
sweetness compared to sucrose: 3

CC(C)(/C=C/C[C@](C)(O[C@@H]1O[C@H](CO[C@@H]2OC[C@@H](O)[C@H](O)[C@H]2O)[C@@H](O)[C@H](O)[C@H]1O)[C@H]1CC[C@]2(C)C1[C@H](O)CC1[C@@]3(C)C[C@@H](O)[C@H](O[C@@H]4O[C@H](CO)[C@@H](O)[C@H](O)[C@H]4O[C@@H]4O[C@H](CO)[C@@H](O)[C@H](O)[C@H]4O)C(C)(C)C3CC[C@]12C)OO (stereo partly drawn) [Compound G]
sweetness compared to sucrose: 2 | Comment (taste impression): Slightly bitter

CC(C)=CCC[C@](C)(O[C@@H]1O[C@H](CO)[C@@H](O)[C@H](O)[C@H]1O)[C@H]1CC[C@]2(C)[C@@H]1[C@H](O)CC1[C@@]3(C)C[C@@H](O)[C@H](O[C@@H]4O[C@H](COC5OCC(O)C(O)C5O)[C@@H](O)[C@H](O)[C@H]4O[C@@H]4O[C@H](CO)[C@@H](O)[C@H](O)[C@H]4O)C(C)(C)C3CC[C@]12C (stereo partly drawn) [Compound H]
sweetness compared to sucrose: 3 | Comment (taste impression): Slightly bitter

C=C(C)C(O)CC[C@](C)(O[C@@H]1O[C@H](CO[C@@H]2OC[C@@H](O)[C@H](O)[C@H]2O)[C@@H](O)[C@H](O)[C@H]1O)[C@H]1CC[C@]2(C)[C@@H]1[C@H](O)CC1[C@@]3(C)C[C@@H](O)[C@H](O[C@@H]4O[C@H](CO)[C@@H](O)[C@H](O)[C@H]4O[C@@H]4O[C@H](CO)[C@@H](O)[C@H](O)[C@H]4O)C(C)(C)C3CC[C@]12C (stereo partly drawn) [Compound I]
sweetness compared to sucrose: 2

CC1(C)C2CC[C@]3(C)C(C[C@@H](O)[C@@H]4[C@@H]([C@](C)(CCCO)O[C@@H]5O[C@H](CO)[C@@H](O)[C@H](O)[C@H]5O)CC[C@]43C)[C@@]2(C)C[C@@H](O)[C@@H]1O[C@@H]1O[C@H](CO)[C@@H](O)[C@H](O)[C@H]1O[C@@H]1O[C@H](CO)[C@@H](O)[C@H](O)[C@H]1O (stereo partly drawn) [Compound J]
sweetness compared to sucrose: 2

CC(CO)C(=O)CC[C@](C)(O[C@@H]1O[C@H](CO)[C@@H](O)[C@H](O)[C@H]1O)[C@H]1CC[C@]2(C)[C@@H]1[C@H](O)CC1[C@@]3(C)C[C@@H](O)[C@H](O[C@@H]4O[C@H](CO)[C@@H](O)[C@H](O)[C@H]4O[C@@H]4O[C@H](CO)[C@@H](O)[C@H](O)[C@H]4O)C(C)(C)C3CC[C@]12C (stereo partly drawn) [Compound K]
sweetness compared to sucrose: 3

CC(CO)C(=O)CC[C@](C)(O[C@@H]1O[C@H](CO)[C@@H](O)[C@H](O)[C@H]1O)[C@H]1CC[C@]2(C)[C@@H]1[C@H](O)CC1[C@@]3(C)C[C@@H](O)[C@H](O[C@@H]4O[C@H](CO)[C@@H](O)[C@H](O)[C@H]4O[C@@H]4O[C@H](CO)[C@@H](O)[C@H](O)[C@H]4O)C(C)(C)C3CC[C@]12C (stereo partly drawn) [Compound L]
sweetness compared to sucrose: 2
